What was measured:
[1] = system: H1299 T18; experiment: MTS cell viability assay, H1299 T18 resistant variant vs H1299 Parental; format: cell-based, human; conditions: H1299 T18 vs H1299 Parental
Description: NSCLC lines were treated with paclitaxel+carboplatin combination, given in a ˜2:3 wt/wt ratio, to mirror the clinical dosage values of ˜225 mg/m2 and ˜330 mg/m2, paclitaxel and carboplatin respectively. Note that considering the molecular weights of the two drugs, this translates to approximately a 1 to 3.4 molar ratio. Drugs were given in cycles, following a drug on/drug off treatment scheme. Each cycle consisted of 4-5 days of drug treatment and drug-free culturing for about 1-2 weeks or more to allow the surviving cells to repopulate the plate. […] Untreated parental cells were simultaneously maintained at all times for comparison. Cell viability was assessed in 96-well plates using standard MTS assays (Promega). Treatment duration in MTS assays was 4 days. Drugs were tested in two- or four-fold serial dilutions, totaling 8 different drug concentrations, with 8 replicates per concentration. Response was validated in multiple replicate plates (n≥3).
Cell viability was assessed by standard MTS assays using Promega's CellTiter reagents. Eight drug concentrations given as two- or four-fold dilutions were tested for each chemotherapeutic agent. In addition, each experiment contained eight replicates per concentration and the entire assay was performed in multiple replicates (n≥3).

[2] = system: H1299 Parental xenografts; conditions: for final tumor burden (tumor weights) of combination / tumor growth inhibition of combination: combination with paclitaxel+carboplatin chemotherapy
Description: (§1) Animals were housed under standard, sterile conditions at UTSW animal facility. All experiments were carried out under approved IACUC protocols and followed UTSW animal care procedures. For tumor growth rate studies and docetaxel+cisplatin drug response comparisons, 6-8 week old female NOD/SCID mice were used. For all subsequent in vivo drug response studies, 6 week old female athymic nude mice were used (Charles River Labs, Jackson Labs). Experimental details are provided in supplemental information.
(§2) Parental and resistant NSCLC cell lines (1×10^6 cells in PBS or RPMI for H1299; 5×10^6 cells in PBS/matrigel for H1355 and HCC4017) were injected subcutaneously into the right flank of mice. Tumor growth was monitored by caliper measurements and tumor volume was calculated by 0.5×length×width^2). Treatment was started when tumors reached ˜150-200 mm3. Drug/Vehicle therapy was given to tumor volume matched pairs. Docetaxel (3 mg/kg) and cisplatin (3 mg/kg) were given i.p. once a week for 3 weeks. For JIB-04 studies, nude mice were randomized to receive either of 5, 20 or 50 mg/kg doses or vehicle, 3× per week for 2 weeks by gavage in 12.5% cremophor EL, 12.5% DMSO, aqueous suspension.

[3] = system: H1299 T18 xenografts; conditions: for final tumor weights vs vehicle: GSK-J4 100 mg/kg 10 days, JIB-04 50 mg/kg; for tumor volume vs vehicle: GSK-J4 100 mg/kg every day 10 days, JIB-04 5, 20 or 50 mg/kg 3x per week 2 weeks by gavage
Description: as §1, §2

[4] = system: H1355 T16 xenografts; conditions: for toxicity in treated mice: mouse, in vivo
Description: as §1
as §2, with “For JIB-04 studies, nude mice were randomized to receive either of 5, 20 or 50 mg/kg doses or vehicle, 3× per week for 2 weeks by gavage in 12.5% cremophor EL, 12.5% DMSO, aqueous suspension.” left out

[5] = system: H3K9me3 demethylase activity; experiment: Histone demethylase activity in tumor lysates by ELISA (H3K9me3); format: in vivo; conditions: H1299 T18 xenografts, drug-treated vs vehicle
Description: (§3) To evaluate whether the targeted KDM enzymatic activity was reduced in the JmjC inhibitor-treated tumors in vivo, the inventors measured histone demethylase activity in drug-treated and vehicle-control tumor lysates by ELISA. […] Altogether, the results confirmed reduction of the targeted KDM enzymatic activity with cytostatic/cytotoxic effects in JmjC inhibitor-treated chemoresistant xenografts.

[6] = system: H3K27me3 demethylase activity; experiment: Histone demethylase activity in tumor lysates by ELISA (H3K27me3); format: in vivo; conditions: H1299 T18 xenografts, drug-treated vs vehicle
Description: as §3

[7] = system: pro-apoptotic/anti-proliferative genes and proliferative/oncogenic genes; experiment: qRT-PCR of pro-apoptotic and proliferative genes in treated H1299 T18 cells; format: cell-based, human; conditions: 24 h; JIB-04 0.2 μM or GSK-J4 1 μM
Description: Total RNA was isolated using RNeasy Plus Mini kit (Qiagen) and cDNA was generated using iScript cDNA synthesis kit (BioRad). For epigenetic enzymes, transcripts were detected by SYBR Green chemistry in real time quantitative PCR assays using validated primers. TBP and GAPDH were used as endogenous controls. […] For all non-epigenetic transcripts, TaqMan probes (Life Technologies) were utilized in multiplex with GAPDH internal reference gene. Additionally, a reference sample containing pooled RNA from normal human and tumor tissues (Stratagene) was used. PCR reactions were run using the ABI 7300 Real-time PCR System and analyzed with the included software. The comparative CT method was used to compute relative mRNA expression.

[8] = system: 53BP1 foci; experiment: Immunofluorescence DSB repair kinetics, 53BP1 foci; format: cell-based, Human; conditions: for 53BP1 foci resolution: H1299 and A549, 4 h pretreatment, then IR
Description: NSCLCs were seeded onto Lab-Tek II Chamber Slides (Thermo Fisher) and 24 hours later pretreated with JIB-04 or DMSO for 4 h. Then cells were exposed to a total dose of 2 Gy (γH2AX and 53BP1) or 10 Gy (RAD-51 and DNAPKcs p-T2609) radiation. For knockdown and overexpression experiments H1299 cells were transfected using the Amaxa Nucleofector; program X-005. Specifically, 3×10^6 were transfected with siRNA duplexes targeting JMJD2A, JMJD2B, Jarid1A, Jarid1b, scrambled siRNA (250 nM final concentration) or expression vectors pCMVHA-JMJD2A, pCMVHA-JMJD2B, pCMVHA-Jarid1A, pCMVHA-Jarid1B, PC-2 for 72 hours, followed by quantification of expression or irradiation. Then, cells were fixed in 4% formaldehyde/PBS for 15 min, permeabilized with 0.5% Triton X-100 for 15 min on ice, and blocked with 5% bovine serum albumin in PBS for 1 h. The slides were incubated with an antibody against phospho-Histone γH2AX (1:1000, 3 h at room temperature), 53BP1 (1:500, 3 h at room temperature), Rad-51 (1:500, 48 hs 4° C.) or DNAPKcs p-T2609 (1:500, 48 hs 4° C.). Alexa Fluor 488-conjugated goat anti-Rabbit, […] goat anti-mouse or rhodamine red-conjugated goat anti-mouse secondaries antibodies were used (1:1000, 1 h at room temperature). Slides were mounted in a Vectashield mounting medium containing 4′,6-diamidino-2-phenylindole (DAPI). Cells were analyzed on a Zeiss upright fluorescent microscope.

[9] = from non-linear regression/exponential growth curves

| SMILES | sensitivity of resistant variant compared to parental cells [1] | final tumor burden (tumor weights) of combination [2] | tumor growth inhibition of combination [2] | final tumor weights vs vehicle [3] | tumor volume vs vehicle [3] | cleaved caspase 3 staining in tumors (IHC) ([3]; mouse, in vivo) | toxicity in treated mice [4] | H3K9me3 demethylase activity in tumor lysates [5] | H3K27me3 demethylase activity in tumor lysates [6] | pro-apoptotic/anti-proliferative gene expression [7] | proliferative/oncogenic gene expression [7] | 53BP1 foci resolution [8] | also measured |
| --- | --- | --- | --- | --- | --- | --- | --- | --- | --- | --- | --- | --- | --- |
| Clc1ccc(N/N=C(\c2ccccc2)c2ccccn2)nc1 [JIB-04] | several-fold hyper-sensitized | significant reduction in final tumor burden compared to either therapy alone | significantly greater tumor growth inhibition than single agents | significant decrease in final tumor weights | greater percent reduction in final tumor volumes | focally increased cleaved caspase 3 staining | No appreciable toxicity | significantly inhibited | significantly inhibited | up-regulated | downregulated | defective | H1299 T18 SR (Selectivity Ratio) ([1]; SR = [IC50 of Parental]/[IC50 of Resistant]): 20.3; tumor volume vs vehicle ([2]; GSK-J4 100 mg/kg every day 10 days, JIB-04 5, 20 or 50 mg/kg 3x per week 2 weeks by gavage): significantly reduced tumor burden; change in tumor doubling time [2, 9]: < 25%; increase in tumor doubling time [3, 9]: 69%; % Ki67+ cells in tumors (IHC) ([3]; mouse, in vivo): reduction of % Ki67+ cells; change in tumor volume relative to treatment start ([4]; GSK-J4 100 mg/kg i.p. 5x per week, JIB-04 50 mg/kg oral gavage 3x per week, 4 weeks): significant tumor shrinkage; 53BP1 foci formation and resolution ([8]; HCC-95 cells, 35 nM JIB-04 4 h, 2 Gy): delayed 53BP1 foci formation and resolution |
| CCOC(=O)CCNc1cc(N2CCc3ccccc3CC2)nc(-c2ccccn2)n1 [GSK-J4] | higher sensitivity | significant reduction in final tumor burden compared to either therapy alone | significantly greater tumor growth inhibition than single agents | significant decrease in final tumor weights | significant reduction in average tumor volume | focally increased cleaved caspase 3 staining | No appreciable toxicity | without reducing H3K4me3 or H3K9me3 demethylase activity | significantly inhibited H3K27me3 demethylase activity | up-regulated | downregulated | not observed | final tumor weights vs vehicle ([2]; GSK-J4 100 mg/kg 10 days): no significant drug-induced decrease; % γH2AX+ cells in tumors (IHC) ([3]; mouse, in vivo): increased the % γH2AX+ cells |

Source: patent publication US11497740B2, “Use of Jumonji C demethylase inhibitors for the treatment and prevention of chemotherapy resistance and radioresistance in cancer” (THE BOARD OF REGENTS OF THE UNIVERSITY OF TEXAS SYSTEM, priority 2016, dated 2022)
